Measured values reported in patent US9889146B2, “Benzoxaborole compounds and uses thereof” (priority 2012, dated 2018).
Values after ≈ are worked out from the molar mass of the structure shown. “Also recorded” adds a separate entry of the source. Where two headings read alike, the source gives them in different places.

Key:
[1] = tested on: E. coli ATCC 25922, K. pneumoniae ATCC 13883, and P. aeruginosa ATCC 27853; assay: Spontaneous frequency of resistance, three strains summarised; format: cell-based
Procedure: Spontaneous Resistance Frequency was determined in vitro for GSK2251052 and the resistance mutants in E. coli ATCC 25922, K. pneumoniae ATCC 13883, and P. aeruginosa ATCC 27853 strains were characterized. GSK2251052 was prepared as described in U.S. Pat. No. 7,816,344 (the entire contents of which are hereby incorporated by reference herein). LB broth, Mueller Hinton II broth (adjusted), and Difco noble agar were obtained from Becton Dickinson (Cockeysville, Md., USA). M9 minimal broth containing 1×M9 salt, 0.5 μg/ML thiamine, 1 mM MgSO4, 0.1 mM CaCl2, 2% glucose, was obtained from Teknova (Hollister, Calif., USA). Antibacterial agents ciprofloxacin, ceftazidime, chloramphenicol, gentamycin, kanamycin, polymixin B, tobramycin and trimethoprim, and amino acids were obtained from Sigma Chemicals (St. Louis, Mo., USA). Strains were obtained from ATCC (Manassas, Va., USA).
Selection of resistance to GSK2251052 was attempted by spreading various amounts of bacteria onto MHBII noble agar plates containing 4×MIC (minimum inhibitory concentration) or 10×MIC of GSK2251052. Colonies were counted after 24 hours and 48 hours incubation at 37° C. […] Frequency of resistance was determined by dividing the number of resistant mutants by the total number of cells plated as determined by plating dilutions of the overnight culture on LB plates.

[2] = tested on: E. coli 1162222 (standard strain) and clinical isolate 1a of E. coli; assay: Frequency of spontaneous resistance to GSK2251052 in the presence of norvaline; format: cell-based, Escherichia coli
Procedure: Clinical strains of Escherichia coli and Proteus mirabilis isolated from the above-described clinical trial study (Table 12), along with other E. coli strains were used to measure the suppression of the emergence of resistant bacterial strains in vitro and to determine the susceptibility of these GSK2251052 resistant bacterial isolates to norvaline.
GSK2251052 and norvaline were prepared at a concentration of 6.4 mg/mL (free base) in 100% DMSO and 100% water respectively, aliquoted in 0.5 mL individual stocks, and stored at −20° C. until required.
Plates were poured and left to cool and solidify.
Cultures were prepared by inoculating broth with a bacterial suspension in saline, prepared from plates derived from individual colonies. For each organism, 100 mL of CAMHB was inoculated with 5 mL of a bacterial suspension with turbidity equivalent to 0.5 McFarland. These cultures were incubated on an orbital shaker at 37° C. until the broth was visibly turbid (approximately 3 hours). Following incubation, cultures were centrifuged at 11,000 g for 10 min at 4° C. The culture media was then decanted and cell pellets were resuspended to an appropriate cell concentration in fresh CAMHB or M9. The ratio of OD625 to CFU/mL used to approximate culture size is 0.1:1.0×10^8. Targeted E. coli cell concentrations were 2×10^9 CFU/mL.
Viable counts were performed to determine the concentration of the initial test inoculum using the following steps: 1) ten-fold serial dilutions of each sample were prepared; 2) three 20 μL aliquots from wells corresponding to 10^−5, […], 10^−7 and 10^−8 dilutions were plated onto the appropriate agar plates; 3) the plates were incubated overnight at 35° C. and counts were performed at the dilution that provided distinguishable colonies; 4) an average of the three aliquots was used to determine the number of colony forming units (CFU) in the original sample.
In addition, 100 μL of each cell suspension was spread onto the surface of plates containing the appropriate multiple of MIC concentration of compound and a control agar plate containing no compound. Plates were incubated at 35° C. in ambient air.
Colonies were counted after 24, 48 and 72 hours. […] In order to confirm their resistance phenotype, the susceptibility of these isolates to the selecting agent was tested by broth microdilution methodology.
The frequency of spontaneous resistance was calculated by dividing the total number of resistant colonies growing on plates containing antibiotic by the total number of colony forming units plated. In order to confirm the resistance phenotype, the MIC of the selecting agent was determined against a representative number of colonies from each antibiotic concentration/strain combination. […] The total number of resistant colonies on the plates was extrapolated from the representative set tested.

[3] = tested on: Enterobacter cloacae (AmpC); assay: microbe, parasite or virus in culture; format: cell-based; conditions: Enterobacter cloacae
[4] = tested on: E. coli clinical isolates from subject E. coli 1; assay: GSK2251052 MIC of clinical isolates, subject E. coli 1; format: cell-based; conditions: Escherichia coli, read-out: GSK2251052 MIC GSK results
Procedure: The E. coli and P. mirabilis strains were cultured on Trypticase Soy Agar/5% blood plates (Becton Dickinson BBL), in cation adjusted Mueller-Hinton II Broth, or in M9 minimal salts (Becton Dickinson) broth containing 0.4% glucose and 200 uM MgSO4. L-Norvaline (Sigma-Aldrich) was prepared at a concentration of 6.4 mg/ml in […], in a final volume of approx 0.5 ml, and stored at −20° C. until required.
Minimum inhibitory concentrations (MICs) were determined using the CLSI (Clinical and Laboratory Standards Institute, formerly NCCLS) recommended broth microdilution methodology [NCCLS, 2003] using defined media.

[5] = tested on: E. coli (WT); assay: microbe, parasite or virus in culture; format: cell-based; conditions: Escherichia coli, E. coli (WT)

NC[C@H]1OB(O)c2c(OCCCO)cccc21 [GSK2251052, (S)-3-aminomethyl-7-(3-hydroxy-propoxy)-3h-benzo[c][1,2]oxaborol-1-ol]
frequency of resistance, range ([1]; measured at 24 h): 10^−7 to 10^−8
frequency of resistance, range ([1]; three ATCC strains, 24 h and 48 h time points): 10^−7 to 10^−8
Frequency of Resistant to GSK2251052 (4 μg/mL) ([2]; CAMH Agar, E. coli Isolate 1a, Norvaline 0 μg/mL): 6.3 × 10^−8
Frequency of Resistant to GSK2251052 (4 μg/mL) ([2]; CAMH Agar, E. coli Isolate 1a, Norvaline 2 μg/mL): 7.6 × 10^−8
Frequency of Resistant to GSK2251052 (4 μg/mL) ([2]; CAMH Agar, E. coli Isolate 1a, Norvaline 4 μg/mL): 4.7 × 10^−8
Frequency of Resistant to GSK2251052 (4 μg/mL) ([2]; CAMH Agar, E. coli Isolate 1a, Norvaline 8 μg/mL): 6.3 × 10^−8
Frequency of Resistant to GSK2251052 (4 μg/mL) ([2]; CAMH Agar, E. coli Isolate 1a, Norvaline 16 μg/mL): 4.5 × 10^−8
Frequency of Resistant to GSK2251052 (4 μg/mL) ([2]; CAMH Agar, E. coli Isolate 1a, Norvaline 32 μg/mL): 5.0 × 10^−8
Frequency of Resistant to GSK2251052 (4 μg/mL) ([2]; CAMH Agar, E. coli Isolate 1a, Norvaline 64 μg/mL): 5.3 × 10^−8
Frequency of Resistant to GSK2251052 (4 μg/mL) ([2]; CAMH Agar, E. coli baseline strain, Norvaline 0 μg/mL): 1.2 × 10^−7
Frequency of Resistant to GSK2251052 (4 μg/mL) ([2]; CAMH Agar, E. coli baseline strain, Norvaline 2 μg/mL): 5.0 × 10^−8
Frequency of Resistant to GSK2251052 (4 μg/mL) ([2]; CAMH Agar, E. coli baseline strain, Norvaline 4 μg/mL): 1.2 × 10^−7
Frequency of Resistant to GSK2251052 (4 μg/mL) ([2]; CAMH Agar, E. coli baseline strain, Norvaline 8 μg/mL): 6.8 × 10^−8
Frequency of Resistant to GSK2251052 (4 μg/mL) ([2]; CAMH Agar, E. coli baseline strain, Norvaline 16 μg/mL): 6.1 × 10^−8
Frequency of Resistant to GSK2251052 (4 μg/mL) ([2]; CAMH Agar, E. coli baseline strain, Norvaline 32 μg/mL): 1.1 × 10^−7
Frequency of Resistant to GSK2251052 (4 μg/mL) ([2]; CAMH Agar, E. coli baseline strain, Norvaline 64 μg/mL): 9.3 × 10^−8
Frequency of Resistant to GSK2251052 (4 μg/mL) ([2]; M9 Agar, E. coli Isolate 1a, Norvaline 0 μg/mL): 3.8×10^−7
Frequency of Resistant to GSK2251052 (4 μg/mL) ([2]; M9 Agar, E. coli Isolate 1a, Norvaline 2 μg/mL): 4.8×10^−8
Frequency of Resistant to GSK2251052 (4 μg/mL) ([2]; M9 Agar, E. coli Isolate 1a, Norvaline 4 μg/mL): <1.7 × 10^−9
Frequency of Resistant to GSK2251052 (4 μg/mL) ([2]; M9 Agar, E. coli Isolate 1a, Norvaline 8 μg/mL): <1.7 × 10^−9
Frequency of Resistant to GSK2251052 (4 μg/mL) ([2]; M9 Agar, E. coli Isolate 1a, Norvaline 16 μg/mL): <1.7 × 10^−9
Frequency of Resistant to GSK2251052 (4 μg/mL) ([2]; M9 Agar, E. coli Isolate 1a, Norvaline 32 μg/mL): <1.7 × 10^−9
Frequency of Resistant to GSK2251052 (4 μg/mL) ([2]; M9 Agar, E. coli Isolate 1a, Norvaline 64 μg/mL): <1.7 × 10^−9
Frequency of Resistant to GSK2251052 (4 μg/mL) ([2]; M9 Agar, E. coli baseline strain, Norvaline 0 μg/mL): 4.9×10^−8
Frequency of Resistant to GSK2251052 (4 μg/mL) ([2]; M9 Agar, E. coli baseline strain, Norvaline 2 μg/mL): 2.8 × 10^−8
Frequency of Resistant to GSK2251052 (4 μg/mL) ([2]; M9 Agar, E. coli baseline strain, Norvaline 4 μg/mL): 2.0 × 10^−8
Frequency of Resistant to GSK2251052 (4 μg/mL) ([2]; M9 Agar, E. coli baseline strain, Norvaline 8 μg/mL): 6.0 × 10^−8
Frequency of Resistant to GSK2251052 (4 μg/mL) ([2]; M9 Agar, E. coli baseline strain, Norvaline 16 μg/mL): 3.0 × 10^−9
Frequency of Resistant to GSK2251052 (4 μg/mL) ([2]; M9 Agar, E. coli baseline strain, Norvaline 32 μg/mL): <1.0 × 10^−9
Frequency of Resistant to GSK2251052 (4 μg/mL) ([2]; M9 Agar, E. coli baseline strain, Norvaline 64 μg/mL): <1.0 × 10^−9
decrease in the frequency of resistance to GSK2251052 ([2]; M9 minimal media, E. coli baseline strain, no norvaline versus >32 μg/mL): ≥ 50 fold
decrease in the frequency of spontaneous resistance ([2]; M9 minimal media, E. coli clinical isolate from subject E. coli 1, no norvaline versus >4 μg/mL): over 200 fold
effect of norvaline on frequency of resistance in rich media ([2]; both E. coli strains, rich media, GSK2251052 4 μg/mL, norvaline up to 64 μg/mL): remained the same; also recorded: did not change the frequency of spontaneous resistance
frequency of resistance to GSK2251052 ([2]; minimal media, E. coli clinical isolate 1a, norvaline ≧4 μg/mL): < 1.7×10^−9
reduction of the appearance of mutants ([2]; minimal media, baseline E. coli strain, norvaline at 8 μg/mL): 10 fold
frequency of resistance to GSK2251052 ([2]; minimal media, baseline E. coli strain, norvaline ≧32 μg/mL): < 1×10^−9
MIC90 [3]: 0.5 µg/mL (≈ 2.11 µM)
MIC90 ([3]; read-out: susceptibility category of MIC90): < 4 µg/mL
MIC ([4]; 24 h, subject E. Coli 1, day 1, first line, no LeuRS change): 0.5 µg/mL
MIC ([4]; 24 h, subject E. Coli 1, day 1, second line, no LeuRS change): 0.25 µg/mL
MIC ([4]; 48 h): 16 µg/mL
MIC ([4]; 72 h): 16 µg/mL
MIC ([4]; 96 h): 16 µg/mL
MIC90 ([5]; 214 isolates, read-out: MIC90): 1 µg/mL (≈ 4.22 µM)
MIC90 ([5]; GSK2251052 breakpoint, read-out: susceptibility category of MIC90): < 4 µg/mL
